Measurements: paper PMC5532717 (ACS Central Science, 2017)

Molecular target: T1, GBA2 (Homo sapiens, UniProt Q9HCG7)
T1 sequence (Q9HCG7 1-927): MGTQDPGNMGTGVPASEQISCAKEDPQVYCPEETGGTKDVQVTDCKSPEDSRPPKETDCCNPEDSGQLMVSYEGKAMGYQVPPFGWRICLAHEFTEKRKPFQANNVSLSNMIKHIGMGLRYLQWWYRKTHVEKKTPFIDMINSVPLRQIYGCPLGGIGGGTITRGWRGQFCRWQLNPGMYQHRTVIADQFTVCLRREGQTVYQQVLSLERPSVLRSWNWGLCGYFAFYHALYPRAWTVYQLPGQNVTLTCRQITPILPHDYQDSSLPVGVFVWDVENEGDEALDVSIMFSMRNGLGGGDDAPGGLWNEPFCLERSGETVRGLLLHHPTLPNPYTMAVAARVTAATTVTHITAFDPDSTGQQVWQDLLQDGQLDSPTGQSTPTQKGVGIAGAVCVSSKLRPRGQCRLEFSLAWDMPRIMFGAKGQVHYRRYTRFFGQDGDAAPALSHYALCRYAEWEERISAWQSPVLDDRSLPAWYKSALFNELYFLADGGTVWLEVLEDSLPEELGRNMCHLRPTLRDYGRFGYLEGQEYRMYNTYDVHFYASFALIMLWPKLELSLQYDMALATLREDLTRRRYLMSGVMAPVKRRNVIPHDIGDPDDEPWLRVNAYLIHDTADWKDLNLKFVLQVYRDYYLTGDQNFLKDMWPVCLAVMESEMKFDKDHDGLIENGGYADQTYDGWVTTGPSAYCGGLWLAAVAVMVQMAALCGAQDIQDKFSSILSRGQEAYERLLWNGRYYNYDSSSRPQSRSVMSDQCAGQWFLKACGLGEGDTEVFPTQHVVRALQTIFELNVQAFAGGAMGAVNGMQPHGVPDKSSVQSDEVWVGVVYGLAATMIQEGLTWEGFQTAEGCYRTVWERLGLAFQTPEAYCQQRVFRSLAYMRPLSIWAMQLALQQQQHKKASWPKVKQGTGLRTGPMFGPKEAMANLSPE
Test: Competitive ABPP against β-glucosidase probe 14, GBA2+ HEK293T lysate
Assay type: biochemical
Conditions: 5 from 30 to 0 μM, 1 h at 37 °C, pH 5.8

inhibition of probe 14 labeling of GBA2: no inhibition
SMILES: O=S1(=O)O[C@@H]2[C@H](O)[C@@H](O)[C@H](O)[C@@H](CO)[C@@H]2O1 [Compound 5, 1,6-epi-cyclophellitol cyclosulfate]
